Test system: adjuvant-associated biological themes in LV, SP, LN
Summary of the method: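 Per-mouse whole-organ transcriptomes; genes with eij/ei(c)>2.0 tested for theme enrichment via TargetMine (GO, KEGG, Reactome, others), Fisher's exact test, Holm-Bonferroni correction. Themes shared by all three mice kept at p<0.05, using the smallest p. Score per adjuvant-associated term = Σ−log(p) of matching themes.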

In the case of Monophosphoryl lipid A [MPLA], the “IFN alpha, GO annotation line 1 of 5” value (LV, ID) is reported as 0, the “IFN alpha, GO annotation line 2 of 5” value (LV, ID) is reported as 0 and the “IFN alpha: cellular response to interferon-alpha” value (LV, ID) is reported as 0. For the same substance, the “IFN alpha: positive regulation of interferon-alpha production” value (LV, ID) was 0, the “IFN alpha: regulation of interferon-alpha production” value (LV, ID) was 0 and the “IFN beta: cellular response to interferon-beta” value (LV, ID) was 0. For the same substance, the “IFN beta: interferon-beta production” value (LV, ID) was 0, the “IFN beta: positive regulation of interferon-beta production” value (LV, ID) was 0 and the “IFN beta: regulation of interferon-beta production” value (LV, ID) was 0. For the same substance, the “IFN beta: response to interferon-beta” value (LV, ID) was 0, the “IFN gamma: cellular response to interferon-gamma” value (LV, ID) was 0 and the “IFN gamma: interferon-gamma production” value (LV, ID) was 0. For the same substance, the “IFN gamma: regulation of interferon-gamma production” value (LV, ID) was 0, the “IFN gamma: response to interferon-gamma” value (LV, ID) was 0 and the “NF-kappa B signaling pathway, GO annotation line 1 of 4” value (LV, ID) was 0. For the same substance, the “NF-kappa B signaling pathway, GO annotation line 2 of 4” value (LV, ID) was 0, the “NF-kappa B signaling pathway, GO annotation line 3 of 4” value (LV, ID) was 0 and the “NF-kappa B signaling pathway, GO annotation line 4 of 4” value (LV, ID) was 0. For the same substance, the TNF signaling pathway (LV, ID) was 3.93, the “adaptive immune response, GO annotation line 1 of 5” value (LV, ID) was 0 and the “adaptive immune response, GO annotation line 2 of 5” value (LV, ID) was 0. For the same substance, the “adaptive immune response, GO annotation line 3 of 5” value (LV, ID) was 0, the “adaptive immune response, GO annotation line 4 of 5” value (LV, ID) was 0 and the “adaptive immune response, GO annotation line 5 of 5” value (LV, ID) was 0. The “apoptosis, GO annotation line 1 of 8” value (LV, ID) was 0, the “apoptosis, GO annotation line 2 of 8” value (LV, ID) was 0 and the “apoptosis, GO annotation line 3 of 8” value (LV, ID) was 0. For the same substance, the “apoptosis, GO annotation line 4 of 8” value (LV, ID) was 0, the “apoptosis, GO annotation line 5 of 8” value (LV, ID) was 0 and the “apoptosis, GO annotation line 6 of 8” value (LV, ID) was 0. For the same substance, the “apoptosis, GO annotation line 7 of 8” value (LV, ID) was 0, the “apoptosis, GO annotation line 8 of 8” value (LV, ID) was 0 and the “cell death, GO annotation line 1 of 9” value (LV, ID) was 0. The “cell death, GO annotation line 2 of 9” value (LV, ID) was 0, the “cell death, GO annotation line 3 of 9” value (LV, ID) was 0 and the “cell death, GO annotation line 4 of 9” value (LV, ID) was 0. For the same substance, the “cell death, GO annotation line 5 of 9” value (LV, ID) was 0, the “cell death, GO annotation line 6 of 9” value (LV, ID) was 0 and the “cell death, GO annotation line 7 of 9” value (LV, ID) was 0. The “cell death, GO annotation line 8 of 9” value (LV, ID) was 0, the “cell death, GO annotation line 9 of 9” value (LV, ID) was 0 and the “chemokine, GO annotation line 1 of 4” value (LV, ID) was 0. The “chemokine, GO annotation line 2 of 4” value (LV, ID) was 0, the “chemokine, GO annotation line 3 of 4” value (LV, ID) was 0 and the “chemokine, GO annotation line 4 of 4” value (LV, ID) was 0. The “chemotaxis, GO annotation line 1 of 11” value (LV, ID) was 3.38, the “chemotaxis, GO annotation line 2 of 11” value (LV, ID) was 0 and the “chemotaxis, GO annotation line 3 of 11” value (LV, ID) was 0. The “chemotaxis, GO annotation line 4 of 11” value (LV, ID) was 0, the “chemotaxis, GO annotation line 5 of 11” value (LV, ID) was 0 and the “chemotaxis, GO annotation line 6 of 11” value (LV, ID) was 0. For the same substance, the “chemotaxis, GO annotation line 7 of 11” value (LV, ID) was 0, the “chemotaxis, GO annotation line 8 of 11” value (LV, ID) was 0 and the “chemotaxis, GO annotation line 9 of 11” value (LV, ID) was 0. For the same substance, the “chemotaxis, GO annotation line 10 of 11” value (LV, ID) was 0, the “chemotaxis, GO annotation line 11 of 11” value (LV, ID) was 0 and the “cytokine, GO annotation line 1 of 17” value (LV, ID) was 0. The “cytokine, GO annotation line 2 of 17” value (LV, ID) was 0, the “cytokine, GO annotation line 3 of 17” value (LV, ID) was 0 and the “cytokine, GO annotation line 4 of 17” value (LV, ID) was 0. The “cytokine, GO annotation line 5 of 17” value (LV, ID) was 0, the “cytokine, GO annotation line 6 of 17” value (LV, ID) was 0 and the “cytokine, GO annotation line 7 of 17” value (LV, ID) was 0. The “cytokine, GO annotation line 8 of 17” value (LV, ID) was 0, the “cytokine, GO annotation line 9 of 17” value (LV, ID) was 0 and the “cytokine, GO annotation line 10 of 17” value (LV, ID) was 0. For the same substance, the “cytokine, GO annotation line 11 of 17” value (LV, ID) was 0, the “cytokine, GO annotation line 12 of 17” value (LV, ID) was 0 and the “cytokine, GO annotation line 13 of 17” value (LV, ID) was 0. The “cytokine, GO annotation line 14 of 17” value (LV, ID) was 0, the “cytokine, GO annotation line 15 of 17” value (LV, ID) was 0 and the “cytokine, GO annotation line 16 of 17” value (LV, ID) was 0. For the same substance, the “cytokine, GO annotation line 17 of 17” value (LV, ID) was 0, the “defense response, GO annotation line 1 of 11” value (LV, ID) was 0 and the “defense response, GO annotation line 2 of 11” value (LV, ID) was 0. For the same substance, the “defense response, GO annotation line 3 of 11” value (LV, ID) was 0, the “defense response, GO annotation line 4 of 11” value (LV, ID) was 0 and the “defense response, GO annotation line 5 of 11” value (LV, ID) was 0. For the same substance, the “defense response, GO annotation line 6 of 11” value (LV, ID) was 0, the “defense response, GO annotation line 7 of 11” value (LV, ID) was 0 and the “defense response, GO annotation line 8 of 11” value (LV, ID) was 0. The “defense response, GO annotation line 9 of 11” value (LV, ID) was 0, the “defense response, GO annotation line 10 of 11” value (LV, ID) was 0 and the “defense response, GO annotation line 11 of 11” value (LV, ID) was 0. For the same substance, the “immune response, GO annotation line 1 of 8” value (LV, ID) was 0, the “immune response, GO annotation line 2 of 8” value (LV, ID) was 0 and the “immune response, GO annotation line 3 of 8” value (LV, ID) was 0. For the same substance, the “immune response, GO annotation line 4 of 8” value (LV, ID) was 0, the “immune response, GO annotation line 5 of 8” value (LV, ID) was 0 and the “immune response, GO annotation line 6 of 8” value (LV, ID) was 0. For the same substance, the “immune response, GO annotation line 7 of 8” value (LV, ID) was 0, the “immune response, GO annotation line 8 of 8” value (LV, ID) was 0 and the “inflammatory response, GO annotation line 1 of 5” value (LV, ID) was 0. For the same substance, the “inflammatory response, GO annotation line 2 of 5” value (LV, ID) was 0, the “inflammatory response, GO annotation line 3 of 5” value (LV, ID) was 0 and the “inflammatory response, GO annotation line 4 of 5” value (LV, ID) was 0. The “inflammatory response, GO annotation line 5 of 5” value (LV, ID) was 0, the “innate immune response, GO annotation line 1 of 6” value (LV, ID) was 0 and the “innate immune response, GO annotation line 2 of 6” value (LV, ID) was 0. For the same substance, the “innate immune response, GO annotation line 3 of 6” value (LV, ID) was 0, the “innate immune response, GO annotation line 4 of 6” value (LV, ID) was 0 and the “innate immune response, GO annotation line 5 of 6” value (LV, ID) was 0. For the same substance, the “innate immune response, GO annotation line 6 of 6” value (LV, ID) was 0, the “interleukin-6: interleukin-6 production” value (LV, ID) was 0 and the “interleukin-6: positive regulation of interleukin-6 production” value (LV, ID) was 0. For the same substance, the “interleukin-6: regulation of interleukin-6 production” value (LV, ID) was 0, the “interleukin-12: interleukin-12 production” value (LV, ID) was 0 and the “interleukin-12: positive regulation of interleukin-12 production” value (LV, ID) was 0. The “interleukin-12: regulation of interleukin-12 production” value (LV, ID) was 0, the “migration, GO annotation line 1 of 10” value (LV, ID) was 0 and the “migration, GO annotation line 2 of 10” value (LV, ID) was 0. For the same substance, the “migration, GO annotation line 3 of 10” value (LV, ID) was 0, the “migration, GO annotation line 4 of 10” value (LV, ID) was 0 and the “migration, GO annotation line 5 of 10” value (LV, ID) was 0. The “migration, GO annotation line 6 of 10” value (LV, ID) was 0, the “migration, GO annotation line 7 of 10” value (LV, ID) was 0 and the “migration, GO annotation line 8 of 10” value (LV, ID) was 0. For the same substance, the “migration, GO annotation line 9 of 10” value (LV, ID) was 0, the “migration, GO annotation line 10 of 10” value (LV, ID) was 0 and the “stress, GO annotation line 1 of 3” value (LV, ID) was 0. The “stress, GO annotation line 2 of 3” value (LV, ID) was 0, the “stress, GO annotation line 3 of 3” value (LV, ID) was 0 and the “wounding, GO annotation line 1 of 3” value (LV, ID) was 0. For the same substance, the “wounding, GO annotation line 2 of 3” value (LV, ID) was 0, the “wounding, GO annotation line 3 of 3” value (LV, ID) was 0 and the “systemic organ (LV and SP) responses after i.d. local administration” value (i.d., fold change >2) was “limited responses in LV and SP”.

Reference: US20230021483A1, “[…] […] METHOD AND CLASSIFICATION OF PHARMACEUTICAL COMPONENTS BY USING TRANSCRIPTOMES” (National Institutes of Biomedical Innovation, Health and …, priority 2016, published 2023)
